Test results published in US7647217B2, “Structure of the farnesoid X receptor ligand binding domain and methods of use therefor” (The Salk Institute for Biological Studies, priority 2002, dated 2010).

What was measured:
[1] = biological target: T1, FXR ligand-binding domain (Homo sapiens, UniProt Q96RI1); assay: FRET-based coactivator (SRC-1 peptide) binding assay; format: biochemical; conditions: for EC50: agonist mode, 8 nM GST-FXR LBD, 16 nM SRC-1 peptide, read-out: EC50 of SRC-1 peptide recruitment
T1 construct: made in house; host or cells: E. coli BL21 (DE3)
T1 sequence (Q96RI1 258-486): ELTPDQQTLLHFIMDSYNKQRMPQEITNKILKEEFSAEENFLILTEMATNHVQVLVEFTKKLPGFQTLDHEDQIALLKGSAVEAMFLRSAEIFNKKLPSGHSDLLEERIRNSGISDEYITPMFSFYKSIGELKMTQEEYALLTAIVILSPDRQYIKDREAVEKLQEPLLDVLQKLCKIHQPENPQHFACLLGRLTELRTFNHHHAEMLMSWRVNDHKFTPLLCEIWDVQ
Procedure: Increasing amounts of the compounds were added as indicated. Binding reactions contained 8 nM Europium labeled GST-FXR ligand-binding domain fusion protein and 16 nM allophycocyanin-labeled SRC-1 receptor binding peptide. Results are expressed at 1000*(665 nm/615 nm).
Standard PCR amplifications of the LBD of human FXR (residues 248 to 476) and sub-cloning techniques were used to generate pGEX Glutathione-s-transferase (GST) and pHIS8-3 (Jez et al. (2000) Dissection of malonyl-coenzyme A decarboxylation from polyketide formation in the reaction mechanism of a plant polyketide synthase. Biochemistry 39, 890-902) prokaryote protein expression vectors. DNA fragments containing hFXR aa248 to 476 were cloned into the BamHI site of pGEX-hFXR, while the cloning sites NcoI and BamHI sites were used in pHIS8-3.
To determine if the compounds identified as ligands could promote the association of FXR with co-activators in vitro, a fluorescence resonance energy transfer (FRET)-based coactivator binding assay was employed (see, for example, Makishima et al. (1999), supra; Urizar et al. (2002). A natural product that lowers cholesterol as an antagonist ligand for FXR. Science. 296(5573), 1703-6). This assay relies on an agonist-induced interaction between the nuclear receptor and its coactivator bringing two fluorogenic partners together resulting in the nuclear receptor ligand-dependent FRET.

hPXR = biological target: T2, hPXR (Homo sapiens, UniProt O75469); assay: GAL4 chimeric NHR cross-reactivity assay; format: cell-based; conditions: 10 μM
T2 construct: expressed in transfected cells; host or cells: CV-1 (monkey)
T2 sequence (O75469 146-433 limits assumed): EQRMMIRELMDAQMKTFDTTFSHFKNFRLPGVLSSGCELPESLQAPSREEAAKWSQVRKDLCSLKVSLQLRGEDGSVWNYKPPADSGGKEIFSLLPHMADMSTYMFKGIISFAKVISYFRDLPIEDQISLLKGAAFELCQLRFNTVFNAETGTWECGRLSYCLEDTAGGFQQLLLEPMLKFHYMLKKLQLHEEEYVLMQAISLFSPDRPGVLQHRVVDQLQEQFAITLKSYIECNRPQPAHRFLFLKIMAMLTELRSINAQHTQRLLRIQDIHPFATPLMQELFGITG
Procedure: (§1) FIGS. 3A-3E collectively show the results of ligand activation of CV-1 cells co-transfected with a luciferase reporter gene with a variety of receptor expression constructs. […] FIGS. 3C-3E show the results of CV-1 cells transiently transfected with the indicated reporter constructs, treated with either DMSO or 10 μM of the compounds fexaramine (3C), fexarine (3D), fexarene (3E). Reporter activity was normalized to the internal control and the data plotted as fold activation relative to untreated cells. All transfections contained CMX-βgal as an internal control.
(§2) The expression plasmids pCMX, pCMX-LacZ, pCMX-mFXRFL, pCMX-hRXRFL, pCMX-GALDBD-rFXRLBD and other pCUX-GALDBD-NR LBDs (hRXRα, hPPARαγδ, mPXR, hPXR, hLXRα, HTRβ, hRARβ, mCAR, mERR3 and hVDR) have been described elsewhere (Blumberg et al. (1998). SXR, a novel steroid and xenobiotic-sensing nuclear receptor. Genes Dev. 12(20), 3195-205). The reporter plasmids pMH2004-TK-luc, pTKECRE*6-luc, pTKER-8*2-luc and pMRP-2-luc also have been described elsewhere. The hPLTP-luc promoter was kindly provided by Dr Dennis Dowhan and the hIBABP-luc promoter was created from a plasmid provided by Dr Philippe Besnard.
(§3) Cell-based transcriptional activation assays using chimeric nuclear hormone receptor (NHR) constructs were established to measure the selectivity of the compounds to FXR relative to other NHRs (Forman et al. (1995). Identification of a nuclear receptor that is activated by farnesol metabolites. Cell 81, 687-693). These assays used fusion proteins with the yeast GAL4 DNA binding domain connected to the ligand-binding domain (LBD) of NHRs. These constructs were co-transfected with a thymidine kinase C minimal promoter reporter vector containing four copies of the GAL4 binding site. Titration experiments were then performed using the identified compounds. […] Addition of RXR had no effect on the activation potential of fexaramine, fexarine, fexarene in this assay.
(§4) No activity was observed on other chimeric NHR constructs including hRXRα, hPPARαγδ, mPXR, hPXR, hLXRα, hTRβ, hRARβ, mCAR, mERR3 and hVDR (see FIGS. 3C-3E).

hPPARαγδ = assay: GAL4 chimeric NHR cross-reactivity assay; format: cell-based, human; conditions: 10 μM
Procedure: as §1, §2, §3, §4

[2] = tested on: FXR target genes SHP, MRP-2, BSEP and PLTP in HEPG2-FXR cells; assay: Northern blot of FXR target genes in HEPG2-FXR cells; format: cell-based, human; conditions: for induction of FXR target genes: SHP, MRP-2, BSEP, PLTP; for concentration of maximal activation of FXR target genes: overnight treatment
Procedure: 20 μg total RNA was isolated using Trizol (Invitrogen) and used for Northern blot analysis. cDNA probes for human PLTP, SHP, MRP-2 and BSEP were prepared and hybridized to the blot. Blots were normalized by 36B4 expression as shown.
HepG2 or HT29-derived cell lines were typically cultured in medium containing superstripped FBS for 24 hr before the addition of a ligand or DMSO (vehicle) for an additional 24-48 hr. Total RNA was isolated using TRIzol reagent and was resolved (10 μg/lane) on a 1% agarose, 2.2 M formaldehyde gel, transferred to a nylon membrane (Hybond N^+; Amersham Biosciences, Inc.), and cross-linked to the membrane with UV light.
cDNA probes were radiolabeled with [α-^32P]dCTP using the highprime labeling kit (Amersham Biosciences, Inc.). Membranes were hybridized using the QuikHyb hybridization solution (Stratagene, La Jolla, Calif.) according to the manufacturer's protocol. Blots were normalized for variations of RNA loading by hybridization to a control probe, either, 18 S ribosomal cDNA, or the ribosomal protein 36B4. The RNA levels were quantitated using a PhosphorImager (ImageQuant software; Molecular Dynamics, Inc., Sunnyvale, Calif.) in addition to being exposed to X-ray film.
Total RNA was isolated and the expression of the FXR target genes SHP, MRP-2, BSEP and PLTP was measured by Northern blot analysis (see FIG. 4E).
Differences in efficacy of target gene induction between the liver and the intestinal cell systems may reflect the ability of the liver hepatocytes to mount a xenobotic response or cell specific permeability to the identified compounds. Modification of the ligands to overcome these effects may be made in order to increase the efficacy of these drugs in liver cell systems.

| SMILES | recruitment of SRC-1 peptide [1] | activity on chimeric hPXR construct (hPXR) | activity on chimeric hPPARαγδ constructs (hPPARαγδ) | induction of FXR target genes [2] | concentration of maximal activation of FXR target genes [2] [µM] | EC50 [1] [nM] |
| --- | --- | --- | --- | --- | --- | --- |
| COC(=O)/C=C/c1cccc(N(Cc2ccc(-c3ccccc3OC)cc2)C(=O)C(C)C)c1 [SRI-1] | Weaker recruitment | – | – | – | – | – |
| COC(=O)/C=C/c1cccc(N(Cc2ccc(-c3ccc4c(c3)OCO4)cc2)C(=O)C2CCCCC2)c1 [fexarine] | – | No activity | No activity | strong induction | 10 | 222 |
| COC(=O)/C=C/c1cccc(N(Cc2ccc(-c3ccc(N(C)C)cc3)cc2)C(=O)C2CCCCC2)c1 [fexaramine] | – | – | No activity | most effective inducer | 10 | 255 |
| COC(=O)/C=C/c1cccc(N(Cc2ccc(-c3ccc(C(C)(C)C)cc3)cc2)C(=O)C(C)C)c1 [SRI-2] | Weaker recruitment | – | – | – | – | – |
| COC(=O)/C=C/c1cccc(N(Cc2ccc(/C=C/c3ccccc3)cc2)C(=O)C2CCCCC2)c1 [fexarene] | – | No activity | No activity | strong induction | 10 | ~255 |
